These are literature values, as cited in patent publication US7737133B2, “Formulations and methods of treating inflammatory bowel disease” (AGI Therapeutics Ltd., priority 2003, dated 2010).

For data set [1] the following is noted: reportedly; Ginsberg et al.
For data set [2] the following is noted: compared with 5-ASA.

SMILES strings stand for the structures.

For the molecule `Nc1ccc(C(=O)O)c(O)c1` [Example 4-ASA, 4-aminosalicylic acid], in data set [1], the nephrotoxicity entry was “absence of nephrotoxicity”. For the same molecule, in data set [2], the aqueous stability result is given as “higher aqueous stability”.
Consider `O=C(O)c1cc(N=Nc2ccc(O)c(C(=O)O)c2)ccc1O` [olsalazine, 5,5′-azo-bis salicylic acid], for which the “systemic absorption of 5-ASA or its acetylated form” value (after cleavage of olsalazine in the colon) is listed as “approximately 20%”. Where the note is “olsalazine, conventional powder capsule”, the “absorbed intact from the gut” value is listed as 2.4%.
